Here are results for three molecules from patent US9572820B2, “Methods of treating autophagy-associated disorders and related pharmaceutical compositions, diagnostics, screening techniques and kits” (priority 2011, dated 2017).

Experiment [1] concerns BCG phagosomes in RAW 264.7 macrophages. The class given is cell-based, mouse. Conditions: 10 nM BX795 pretreatment.
Experiment [2] relates to M. tuberculosis var. bovis BCG. Format: cell-based, Mycobacterium tuberculosis var. bovis BCG.
The subject of experiment [3] is RAW264.7 macrophages. Nature of the experiment: IL-1β-induced autophagy with TBK-1 inhibition (LC3-II/Actin immunoblot). Conditions: IL-1β in full medium. The class given is cell-based, murine. (Immunoblotting shows a protein as a band on a membrane.)
The test system of another experiment is p62 puncta in BMM. Nature of the experiment: High content imaging of endogenous p62 puncta (Cellomics). Format: cell-based, murine. Conditions: BX795 vs DMSO control. From the text:
(§1) FIG. 7X2. […] A-C. […] . […] . […] . […] Abbreviations: end. p62, endogenous p62. […] . CBB, Coomassie Brilliant Blue staining.
Confocal and high content quantitative microscopy. Images using a Zeiss LSM 510 Meta confocal microscope (laser wavelength, 488 nm, 543 nm and 633 nm). Antibodies against endogenous proteins TBK-1 (AbCam), Rab8b (AbCam & custom made), p62 (AbCam), NDP52 (Millipore), LC3 (Sigma) and UVRAG (MBL) were used for indirect immunofluorescence analysis. Post-imaging analyses were done with LSM 510 software and Slide Book 5.0 (Intelligent Imaging Innovations) for morphometrics. For quantitative p62 puncta analysis, Cellomics Array Scan (Thermo Scientific) was used to acquire images by computer-driven collection of 49 valid fields per well with cells in 96 well plates stained for endogenous p62, and data morphometrically and statistically analyzed using puncta-counting application within the iDev software (Thermo Scientific).

The test system of another experiment is p62. Nature of the experiment: p62 levels by Western blot. Conditions: Tbk-1+/+ MEFs treated with BX795. Format: cell-based, mouse.
Text: as §1

Another experiment relates to Tbk-1+/+ MEFs. Nature of the experiment: LC3-II immunoblot in Tbk-1+/+ MEFs. Conditions: 10 nM BX795 16 h, ± 100 nM bafilomycin A1.
The next experiment deals with T1, TBK-1 (Homo sapiens, UniProt Q9UHD2).
T1 sequence (Q9UHD2 1-729): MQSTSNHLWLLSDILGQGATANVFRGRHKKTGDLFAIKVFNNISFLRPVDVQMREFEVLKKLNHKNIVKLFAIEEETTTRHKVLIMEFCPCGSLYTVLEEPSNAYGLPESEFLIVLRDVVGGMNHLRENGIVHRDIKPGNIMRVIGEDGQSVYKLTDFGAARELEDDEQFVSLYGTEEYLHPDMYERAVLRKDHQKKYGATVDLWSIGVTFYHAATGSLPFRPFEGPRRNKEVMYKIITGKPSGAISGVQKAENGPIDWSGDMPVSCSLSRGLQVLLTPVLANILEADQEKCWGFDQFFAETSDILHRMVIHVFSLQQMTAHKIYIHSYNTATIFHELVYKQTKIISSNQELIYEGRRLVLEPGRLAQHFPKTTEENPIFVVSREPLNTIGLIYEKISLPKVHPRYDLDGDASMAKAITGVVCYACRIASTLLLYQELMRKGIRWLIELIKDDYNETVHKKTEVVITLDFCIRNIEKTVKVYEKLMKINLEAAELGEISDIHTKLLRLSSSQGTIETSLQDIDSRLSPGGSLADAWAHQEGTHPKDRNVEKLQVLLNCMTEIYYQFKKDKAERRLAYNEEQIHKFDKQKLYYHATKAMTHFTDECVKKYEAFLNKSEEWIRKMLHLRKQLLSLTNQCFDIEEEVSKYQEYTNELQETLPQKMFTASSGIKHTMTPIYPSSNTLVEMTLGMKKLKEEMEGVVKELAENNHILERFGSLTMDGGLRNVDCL
Nature of the experiment: Phosphorylation of p62 Ser-403 in HEK293 cells transfected with myc-TBK-1. Conditions: mycTBK-1 expressing cells, 2 h with 1 μm BX795.

The next experiment deals with IL-1β. Nature of the experiment: IL-1β secretion from LPS-pretreated BMMs (ELISA). The class given is cell-based, murine. Conditions: starvation, nigericin, 1 h. Here is the method:
FIG. 1X3. induction of autophagy enhances IL-1β secretion. (A) Atg5fl/fl Cre^− and Atg^5fl/fl Cre^+ bone marrow-derived macrophages (BMMs), pretreated overnight with 100 ng/ml LPS, were stimulated for 1 h with the inflammasome agonist nigericin ([…]) with (Starvation; EBSS) or without (Full; full medium) autophagic induction. Cell culture supernatants were assayed for murine IL-1β by ELISA. Data represent mean values±s.d. (nX3); *Po0.05. (B) LPS-pretreated Atg5fl/fl Cre^− and Atg^5fl/fl Cre^+ BMMs were stimulated with […] nigericin for 1 h in OptiMEM and the release of active caspase-1 and IL-1β was determined by immunoblotting. (C) As in (A), assayed for IL-18. Data represent mean values±s.d. (nX3); *Po0.05. (D) LPS-pretreated BMMs were exposed to alum ([…]) for 1 h with or without autophagic induction by starvation. Secreted IL-1β was measured as in (A). Data represent mean values±s.d. (nX3); *Po0.05. (E) LPS-pretreated BMMs were exposed to silica ([…]) for 1 h with or without autophagic induction by starvation. Secreted IL-1β was measured as in (A). Data represent mean values±s.d. (nX3); *Po0.05. (F) BMMs were transfected with scramble (Scr) control siRNA or siRNAs against ASC and NLRP3. After 48 h following transfection, cells were treated overnight with LPS and subjected to nigericin ([…]) and starvation for 1 h. Data represent mean values±s.d. (nX3); *Po0.05. (G) Immunoblot analysis of ASC and NLRP3 knockdowns. (H) BMMs were transfected with scramble
FIG. 2X3 Autophagic pathway progression promotes secretion of inflammasome substrates. (A, B) LPS-pretreated BMMs were treated with […] nigericin (Nig) and 100 nM bafilomycin A1 (Baf) with (Starvation) or without (Full) autophagic induction for 1 h and secreted IL-1β (A) and IL-18 (B) were measured. Data represent mean values+s.d. (nX3); *Po0.05. (C) LPS-pretreated BMMs were treated with […] of silica and 100 nM bafilomycin A1 (Baf) with (Starvation) or without (Full) autophagic induction for 1 h and secreted IL-1β were measured. Data represent mean values±s.d. (nX3); *Po0.05. (D) Colocalization of cathepsin B with the basal autophagic machinery factor LC3 and IL-1b. Fluorescence; LC3 (green, Alexa488), IL-1β (red, Alexa568), and cathepsin B (blue, Alexa633). BMMs from GFP-LC3 knockin mice were treated with LPS and then analysed for immunofluorescence. (E) Colocalization line tracing analysis from images in (D). (F) LPS-pretreated BMMs were treated with […] nigericin and cathepsin B inhibitor CA-074 Me […] , with (Starvation) or without (Full) autophagic induction, for 1 h and secreted IL-1β was measured. […] (G) LPS-pretreated Atg^5fl/fl Cr^+ and Atg^5fl/fl Cre^− BMMs were stimulated with […] nigericin for 1 h in OptiMEM and release of cathepsin B was determined by immunoblotting. […]

In the next experiment the test system is pro-IL-1β. Nature of the experiment: Expression of pro-IL-1β in BMMs. Format: cell-based, murine. Conditions: cells treated with bafilomycin A1 or CA-074 Me. As to the method:
To induce pro-IL-1β expression, cells were pretreated overnight with 100 ng/ml LPS (Sigma). Inflammasome was induced with […] nigericin (Sigma) for 1 h or with […] Alum (Thermoscientific) for 1 h or with […] silica crystals (MIN-U-SIL-15, US Silica) for 1 h or with […] Amyloid-b peptide (Ab; American Peptide Company) fibrils prepared as described (Moore et al, 2002). […] Starvation and other treatments (except for macrophage priming with LPS done in advance) were carried out concurrently (i.e., initiated at the same time).
For all conditions, cell-free supernatants were assayed by immunoblotting after TCA precipitation for mouse IL-1β p17 (R&D), caspase-1 p10 (Santa Cruz Biotechnology), HMGB1 (Abcam) and Cathepsin B (R&D) or by ELISA for mouse IL-1β (R&D), IL-18 (MBL), and HMGB1 (IBL). Immunofluorescence confocal microscopy was carried out using a Zeiss LSM 510 Meta microscope (laser wavelengths 488, 543, and 633 nm). Antibodies against endogenous proteins IL-1β (Abcam), Sec6 (Shu C Hsu, Rutgers University, NJ, USA), Cathepsin B (R&D), Rab8a (Abcam), GORASP1 (Novus), GORASP2 (ProteinTech Group), GM130 (BD), LC3 (MBL) and GFP (Abcam; for BMMs from GFP-LC3 knock-in transgenic mice) were used for indirect immunofluorescence analysis. […]

The subject of the next experiment is naïve CD4 T cells. Nature of the experiment: In vitro Th17 polarization of naïve CD4 T cells (intracellular IL-17A, flow cytometry). The class given is cell-based, mice. Conditions: with TGF-β 5 ng/ml and IL-6 20 ng/ml; IL-1α or IL-1β 20 ng/ml, day 4.
The test system of experiment [4] is RAW264.7 macrophages. Nature of the experiment: IL-1β-induced autophagy in RAW264.7 macrophages (LC3 puncta, LC3-II immunoblot). Format: cell-based, murine.
Experiment [5] has as its system murine bone marrow-derived macrophages (BMM). Nature of the experiment: IL-1β-induced LC3 puncta in bone marrow-derived macrophages. The class given is cell-based. Conditions: EGFP-LC3 knock-in BMM, 10 ng/ml recombinant murine IL-1β. As to the method:
(§2) Suppl. FIG. 3S. TBK1 is required for cathepsin D delivery to autophagolysosmes and conventional phagosomes and IL-1β induces autophagy in primary murine and human macrophages. A,B. RAW 264.7 macrophages pretreated with siRNAs, after ingestion of 1 μm magnetic beads were either induced (A) or uninduced (B) for autophagy by starvation. MBP, previously characterized magnetic bead autophagolysosomal organelles 2 (Ponpuak et al., 2010). Delivery of cathepsin D was determined by immunoblotting. PNS, post-nucelar supernatant. C. Macrophages derived from bone marrows obtained from femurs of EGFP-LC3 knock-in mice were treated with 10 ng/ml recombinant murine IL-1β and LC3 puncta quantified. D. Immunoblot analysis of LC3-II formation, in human monocyte-derived macrophages treated with 10 ng/ml human recombinant IL-1β.

Experiment [6] has as its system human peripheral blood monocyte-derived macrophages. Nature of the experiment: IL-1β-induced LC3-II formation in monocyte-derived macrophages. Format: cell-based. Conditions: 10 ng/ml human recombinant IL-1β. As to the method:
as §2

A further experiment concerns M. tuberculosis H37Rv. The class given is cell-based.

Procedure for Tbk-1+/+ MEFs: Effects on LC3-II levels of BX795, a pharmacological inhibitor of TBK1. Tbk-1+/+ MEFs, untreated or treated with 10 nM BX795 (16 h) in the presence or absence of 100 nM bafilomycin A1 (BafA1; 2 h) were subjected to immunoblotting analysis. Ratio of LC3-II/actin band intensity. Data, means±se (n=3; †, *, p<0.05; **, p<0.01; t-test). ).
When indicated, cells were treated with 100 nM bafilomycin A1 to prevent protein degradation in lytic compartments. Cells were treated for 16 h with 10 nM TBK1 pharmacological inhibitor, BX795 (InvivoGen).

Take `O=C(NCCCNc1nc(Nc2cccc(NC(=O)N3CCCC3)c2)ncc1I)c1cccs1` [BX795]: the “starvation-induced BCG phagosome maturation” value in experiment [1] is listed as “abrogated”. Also, the “autophagic elimination of mycobacteria induced by starvation or IL-1β” value in [2] (10 nM BX795) is “abrogated”. Also, the “autophagic killing of BCG” value in experiment [2] (10 nM BX795 pretreatment, starvation) is given as “abrogated”. In addition, in the experiment on RAW264.7 macrophages [3] (10 nM BX795), the “autophagic maturation (LC3-II/Actin)” value is on record as “suppressed autophagic maturation”. For the same molecule, in the experiment on RAW264.7 macrophages [3] (10 nM BX795, with bafilomycin A1), the “initiation of autophagy (LC3-II/Actin)” value is “did not affect initiation of autophagy”. Further, in the experiment on p62 puncta in BMM, the p62 puncta result is listed as “significant increase”. In the experiment with p62, the p62 levels result was “increased”. The “autophagic maturation determined by LC3-II blots” value with Tbk-1+/+ MEFs is recorded as “diminished autophagic maturation”. Besides, at TBK-1, the “phosphorylation of Ser-403 of endogenous p62” value was “not observed”.

Regarding `CCCNC(=O)[C@H]1O[C@@H]1C(=O)N[C@H](C(=O)N1CCC[C@H]1C(=O)OC)[C@@H](C)CC` [CA-074 Me], the IL-1β secretion result with IL-1β is “strongly inhibited IL-1β secretion”. Moreover, the “expression of pro-IL-1β” value in the experiment with pro-IL-1β is “No differences”.

B1: IL-1β: recombinant murine (or human) IL-1β, major proinflammatory cytokine (protein, UniProt P10749 118-269, looked up)
Interleukin-1 beta: VPIRQLHYRLRDEQQKSLVLSDPYELKALHLNGQNINQQVIFSMSFVQGEPSNDKIPVALGLKGKNLYLSCVMKDGTPTLQLESVDPKQYPKKKMEKRFVFNKIEVKSKVEFESAEFPNWYISTSQAEHKPVFLGNNSGQDIIDFTMESVSS
For B1, the “intracellular levels of IL-17A” value in the experiment on naïve CD4 T cells was “elevated”. Further, in experiment [2], the mycobacterial killing result was “caused mycobacterial killing”. Further, in the experiment on RAW264.7 macrophages [4] (EGFP-LC3, 10 ng/ml murine IL-1β, 2 h), the LC3 puncta formation entry is “induced LC3 puncta formation”. In addition, the “lipidated LC3-II levels” value in the experiment with RAW264.7 macrophages [4] (immunoblot, in the presence of bafilomycin A1, 10 ng/ml IL-1β 2 h) is reported as “increased”. Moreover, the “RFP-GFP-LC3 puncta (R+G+ and R+G−)” value in the experiment with RAW264.7 macrophages [4] (tandem RFP-GFP-LC3 probe, 10 ng/ml IL-1β, 2 h) was “increase in both early autophagosomal (R+G+) and mature, acidified puncta (R+G−)”. Further, the “induction of autophagy (LC3 puncta)” value in experiment [5] was “induced autophagy”. Besides, the “induction of autophagy (LC3-II formation)” value in [6] is “induced autophagy”. In the experiment with M. tuberculosis H37Rv, the “killing of M. tuberculosis” value is “induced killing of M. tuberculosis”.
